Patent US10633338B2, “Binding Function 3 (BF3) site compounds as therapeutics and methods for their use” (THE UNIVERSITY OF BRITISH COLUMBIA, priority 2014, dated 2020)
Read-outs that look alike come from different tables or passages of the source.

Key:
[1] = target: T1, androgen receptor (AR) (Homo sapiens, UniProt P10275, T878A); assay: eGFP cellular AR transcription assay; type: cell-based
T1 construct: stably transfected eGFP-expressing LNCaP human prostate cancer cells (LN-ARR2PB-eGFP) containing an androgen responsive probasin-derived promoter; endogenous in cells; host or cells: LNCaP (LN-ARR2PB-eGFP)
T1 sequence (P10275 1-920 T878A): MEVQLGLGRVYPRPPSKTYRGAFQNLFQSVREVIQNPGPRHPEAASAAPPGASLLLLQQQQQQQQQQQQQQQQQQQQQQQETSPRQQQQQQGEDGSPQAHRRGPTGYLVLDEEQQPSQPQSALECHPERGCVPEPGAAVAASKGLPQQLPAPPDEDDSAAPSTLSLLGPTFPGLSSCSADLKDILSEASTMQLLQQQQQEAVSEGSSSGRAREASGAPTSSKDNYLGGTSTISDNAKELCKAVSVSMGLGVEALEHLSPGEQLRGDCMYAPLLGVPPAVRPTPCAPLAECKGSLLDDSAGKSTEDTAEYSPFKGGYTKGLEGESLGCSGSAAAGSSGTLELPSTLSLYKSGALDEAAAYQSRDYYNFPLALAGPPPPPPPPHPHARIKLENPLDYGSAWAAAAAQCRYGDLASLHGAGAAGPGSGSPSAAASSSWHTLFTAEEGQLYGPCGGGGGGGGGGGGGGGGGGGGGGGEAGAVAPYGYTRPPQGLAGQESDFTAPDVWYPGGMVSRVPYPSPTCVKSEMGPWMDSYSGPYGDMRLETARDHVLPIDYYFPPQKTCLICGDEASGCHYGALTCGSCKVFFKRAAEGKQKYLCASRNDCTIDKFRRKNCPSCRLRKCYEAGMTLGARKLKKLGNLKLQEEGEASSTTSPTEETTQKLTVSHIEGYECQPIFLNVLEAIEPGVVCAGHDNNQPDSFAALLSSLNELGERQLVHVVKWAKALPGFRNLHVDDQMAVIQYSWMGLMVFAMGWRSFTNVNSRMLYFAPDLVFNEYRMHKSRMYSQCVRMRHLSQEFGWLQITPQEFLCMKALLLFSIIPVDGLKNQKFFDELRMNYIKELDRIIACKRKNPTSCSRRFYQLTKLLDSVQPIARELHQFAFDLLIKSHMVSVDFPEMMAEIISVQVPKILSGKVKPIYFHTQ
In short: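 AR transcriptional activity is read as eGFP expression from a probasin-derived androgen-responsive promoter. Compound titrated 0-100 μM in the presence of 0.1 nM R1881; 35,000 cells/well.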

[2] = tested on: PSA; assay: Prostate Surface Antigen (PSA) assay, PSA excreted into the media; type: cell-based, human; settings: same plates as eGFP assay
Method: The evaluation of PSA excreted into the media was performed in parallel to the eGFP assay using the same plates (see above description). After the cells were incubated for 3 days 150 μl of the media was taken from each well, and added to 150 μl of PBS.

[3] = LN-ARR2PBeGFP LNCaP cells, 0.1 nM R1881, 3 days incubation, read-out: eGFP IC50
[4] = PSA excreted into media, 3 days incubation, read-out: PSA IC50
[5] = Homo sapiens, 72 h, PSA excreted into media, 3 days incubation, read-out: PSA IC50
[6] = LN-ARR2PBeGFP LNCaP cells, 0.1 nM R1881, 3 days incubation
[7] = PSA excreted into media, 3 days incubation
[8] = LN-ARR2PB-eGFP LNCaP cells, 0.1 nM R1881, 3 days, 0-100 μM compound, read-out: IC50 (eGFP)
[9] = Homo sapiens, 72 h, media after 3 days, read-out: IC50 (PSA)
[10] = LN-ARR2PB-eGFP LNCaP cells, 0.1 nM R1881, 3 days, 0-100 μM compound

| SMILES | IC50 [1, 3] [nM] | IC50 [2, 5] [nM] | eGFP IC50 [1, 6] | PSA IC50 [2, 7] | also measured |
| --- | --- | --- | --- | --- | --- |
| Cc1cccc2nc(-c3c[nH]c4c(C)c(F)ccc34)ccc12 [Compound 13616] | – | – | Inactive | Inactive | – |
| c1ccc2cc(-c3c[nH]c4cccnc34)ccc2c1 [13 703] | – | – | – | – | IC50 [1, 8]: 100 nM; IC50 [2, 9]: 97 nM |
| Cc1cccc2c(C3Nc4ccccc4C34CCCCC4)c[nH]c12 (stereo not drawn) [13 549] | – | – | – | – | IC50 [1, 8]: 1700 nM; IC50 [2, 9]: 2570 nM |
| Cc1cccc2c(-c3ccc4c(Br)cccc4n3)c[nH]c12 [13 678] | – | – | – | – | IC50 (eGFP) [1, 10]: IC50 (eGFP) = Inactive; IC50 (PSA) ([2]; media after 3 days): IC50 (PSA) = Inactive |
| FC(F)(F)c1ccc(-c2c[nH]c3ccccc23)cc1 [13 743] | – | – | – | – | IC50 [1, 8]: 380 nM; IC50 [2, 9]: 390 nM |
| COc1ccc(Br)cc1-c1c[nH]c2ccccc12 [Compound 13638] | – | – | Inactive | Inactive | – |
| c1ccc(-c2cccc(-c3c[nH]c4ncccc34)c2)cc1 [13 734] | – | – | – | – | IC50 [1, 8]: 11000 nM; IC50 [2, 9]: 4130 nM |
| O=C(O)c1cccc2nc(-c3c[nH]c4c(F)cc(F)cc34)ccc12 [Compound 13666] | – | – | Inactive | Inactive | – |
| c1ccc2c(Cc3nn[nH]n3)c[nH]c2c1 [13 700] | – | – | – | – | IC50 (eGFP) [1, 10]: IC50 (eGFP) = Inactive; IC50 (PSA) ([2]; media after 3 days): IC50 (PSA) = Inactive |
| Cc1cccc2cnn(-c3ccc4ccccc4n3)c12 [13 575] | – | – | – | – | IC50 [1, 8]: 3500 nM; IC50 [2, 9]: 1360 nM |
| CC1(C)C(c2c[nH]c3ncccc23)=Nc2ccccc21 [13 537] | – | – | – | – | IC50 [1, 8]: 700 nM; IC50 [2, 9]: 810 nM |
| Clc1cccc2nc(-c3c[nH]c4ccccc34)ccc12 [Compound 13706] | – | – | Inactive | Inactive | – |
| c1ccc(-c2c[nH]c3ncccc23)cc1 [13 739] | – | – | – | – | IC50 [1, 8]: 660 nM; IC50 [2, 9]: 670 nM |
| Cc1cc(C)c2nc(-c3c[nH]c4c(C)c(F)ccc34)ccc2c1 [Compound 13636] | – | – | Inactive | Inactive | – |
| Fc1ccc2c(-c3ccc4c(C(F)(F)F)cccc4n3)c[nH]c2c1F [Compound 13617] | – | – | Inactive | Inactive | – |
| Fc1cc(Cl)c2[nH]ccc2c1 [Compound 13721] | – | – | Inactive | Inactive | – |
| CC1(C)c2ccc(Br)cc2NC1c1c[nH]c2c(OCc3ccccc3)cccc12 (stereo not drawn) [13 543] | – | – | – | – | IC50 [1, 8]: 3700 nM; IC50 [2, 9]: 3190 nM |
| O=C(O)c1cccc2nc(-c3c[nH]c4c(Cl)cc(F)cc34)ccc12 [Compound 13673] | – | – | Inactive | Inactive | – |
| Cc1cc(F)cc2cc[nH]c12 [Compound 13722] | – | – | Inactive | Inactive | – |
| Cc1cc(F)cc2c(-c3ccc4c(Cl)cccc4n3)c[nH]c12 [Compound 13709] | – | – | Inactive | Inactive | – |
| Cc1cc(C)c2[nH]cc(-c3ccc4c(C#N)cccc4n3)c2c1 [Compound 13608] | – | – | Inactive | Inactive | – |
| c1ccc2c(-c3nn[nH]n3)c[nH]c2c1 [Compound 13701] | – | – | Inactive | Inactive | – |
| Cc1cccc2c(-c3ccc4cccnc4c3)c[nH]c12 [13 744] | – | – | – | – | IC50 [1, 8]: 760 nM; IC50 [2, 9]: 750 nM |
| c1ccc2cc(-c3c[nH]c4ccncc34)ccc2c1 [Compound 13685] | – | – | Inactive | Inactive | – |

Now from value to molecule, other results behind:

| IC50 [1, 3] [nM] | IC50 [2, 5] [nM] | SMILES | eGFP IC50 [1, 6] | PSA IC50 [2, 7] | also measured |
| --- | --- | --- | --- | --- | --- |
| 900 | – | Cc1ccccc1CSc1c(C)[nH]c2ccccc12 [Compound 13412] | – | – | IC50 [2, 4]: 1230 nM |
| 1700 | 2460 | Fc1ccc(Nc2nc3ccccc3[nH]2)cc1Cl [Compound 13145] | – | – | – |
| 290 | 220 | Fc1ccc2nc(-c3c[nH]c4c(F)c(F)c(F)cc34)ccc2c1 [Compound 13749] | – | – | – |
| 2300 | – | CC1(C)c2ccccc2NC1c1c[nH]c2ncccc12 (stereo not drawn) [Compound 13560] | – | – | IC50 [2, 4]: 7500 nM |
| 75 | 51 | c1ccc2cc(-c3n[nH]c4ccccc34)ccc2c1 [Compound 13674] | – | – | – |
| 2850 | 2210 | Cc1ccc2ccc(-c3c[nH]c4c(C)cccc34)nc2c1 [Compound 13658] | – | – | – |
| 700 | 806 | CC1(C)C(c2c[nH]c3ncccc23)=Nc2ccccc21 [Compound 13537] | – | – | – |
| 100 | 17 | Fc1cc2c(-c3ccc4cccnc4c3)c[nH]c2c(F)c1F [Compound 13770] | – | – | – |
| 3540 | 1760 | Cc1c(F)ccc2c(-c3nc4ccccc4cc3O)c[nH]c12 [Compound 13652] | – | – | – |
| 300 | 250 | FC(F)(F)c1ccccc1/N=N/c1c[nH]c2ccccc12 [Compound 13259] | – | – | – |
| 1010 | 950 | FC(F)(F)c1ccccc1-c1c[nH]c2ccccc12 [Compound 13745] | – | – | – |
| 370 | 260 | Fc1cc(F)c2[nH]cc(-c3ccc4cccc(F)c4n3)c2c1F [Compound 13752] | – | – | – |
| 480 | 240 | c1ccc2c(c1)C[C@H](c1c[nH]c3ccccc13)N2 [Compound 13163-B] | – | – | – |
| 2600 | 1910 | Brc1ccc2[nH]cc(-c3ccc4ccccc4n3)c2c1 [Compound 13683] | – | – | – |
| 4700 | 1600 | CC1(C)c2cc(Br)ccc2NC1c1c[nH]c2ccc([N+](=O)[O-])cc12 (stereo not drawn) [Compound 13530] | – | – | – |
| 3700 | 3190 | CC1(C)c2ccc(Br)cc2NC1c1c[nH]c2c(OCc3ccccc3)cccc12 (stereo not drawn) [Compound 13543] | – | – | – |
| 600 | 430 | Fc1ccc2ccc(-c3c[nH]c4cc(F)c(F)cc34)nc2c1 [Compound 13630] | – | – | – |
| 2100 | 110 | c1ccc2[nH]c(-c3c[nH]c4ccccc34)cc2c1 [Compound 13127] | – | – | – |
